Active and inactive are the calls of the source. The rule behind the calls is not given here.
What was measured:
[1] = Apparent permeability of the compound by PAMPA; format: physicochemical
[2] = target: T1, cAMP and cAMP-inhibited cGMP 3',5'-cyclic phosphodiesterase 10A (Mus musculus, UniProt Q8CA95); assay: Inhibition of mouse recombinant GST-tagged PDE10A using [3H]-cAMP as substrate after 30 mins by scintillation proximity assay
T1 sequence (Q8CA95 whole entry): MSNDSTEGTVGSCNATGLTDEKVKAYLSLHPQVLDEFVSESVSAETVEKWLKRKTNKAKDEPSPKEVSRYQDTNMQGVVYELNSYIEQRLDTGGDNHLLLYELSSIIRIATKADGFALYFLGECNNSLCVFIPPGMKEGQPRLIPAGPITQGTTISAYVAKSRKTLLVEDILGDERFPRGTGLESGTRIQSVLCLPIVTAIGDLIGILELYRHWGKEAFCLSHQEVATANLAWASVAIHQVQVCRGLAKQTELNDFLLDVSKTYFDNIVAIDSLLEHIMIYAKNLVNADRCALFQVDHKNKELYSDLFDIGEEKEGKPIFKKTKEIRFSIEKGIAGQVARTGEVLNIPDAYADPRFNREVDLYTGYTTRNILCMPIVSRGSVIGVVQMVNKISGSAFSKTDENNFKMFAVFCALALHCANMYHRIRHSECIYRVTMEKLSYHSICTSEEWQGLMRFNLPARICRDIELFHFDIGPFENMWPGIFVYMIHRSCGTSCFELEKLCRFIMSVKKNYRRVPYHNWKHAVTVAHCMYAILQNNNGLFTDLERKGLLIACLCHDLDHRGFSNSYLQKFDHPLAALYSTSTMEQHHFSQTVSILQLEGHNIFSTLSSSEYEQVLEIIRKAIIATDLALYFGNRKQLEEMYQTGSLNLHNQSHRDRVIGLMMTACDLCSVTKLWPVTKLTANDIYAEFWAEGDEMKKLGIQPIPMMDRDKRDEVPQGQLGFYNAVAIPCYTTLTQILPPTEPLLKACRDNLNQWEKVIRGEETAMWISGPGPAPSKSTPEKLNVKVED

[3] = system: Rattus norvegicus; assay: Antipsychotic activity in po dosed Sprague-Dawley rat prepulse inhibition deficit model assessed as reversal of MK-801-induced effect administered 110 mins prior to MK-801 challenge relative to vehicle-treated control; format: functional
[4] = system: Brain; assay: Free drug level in Sprague-Dawley rat brain at 10 mg/kg, po after 1 hr by LC/MS/MS analysis; format: ADME, organism-based; set-up: dose 10 mg/kg, route oral; conditions: in vivo
[5] = system: Mus musculus; assay: Ratio of ED50 for po dosed Swiss albino mouse assessed as inhibition of apomorphine-induced sniffing behavior administered 30 mins prior to apomorphine challenge to ED50 for po dosed Swiss albino mouse assessed as inhibition of apomorphine-induced climbing behavior administered 30 mins prior to apomorphine challenge; format: functional
[6] = system: Rattus norvegicus; assay: Antipsychotic activity in Sprague-Dawley rat psychosis model assessed as reversal of MK-801-induced locomotion at 10 mg/kg, po administered 2 hrs prior to MK-801 challenge measured every 5 mins for 1 hr starting 15 mins post MK-801 injection relative to vehicle-treated control; format: functional
[7] = target: cGMP-specific 3',5'-cyclic phosphodiesterase (Homo sapiens) (UniProt O76074); assay: Inhibition of human recombinant PDE5A using […] as substrate at 10 uM after 30 mins by scintillation proximity assay
[8] = target: 3',5'-cyclic-AMP phosphodiesterase 4D (Homo sapiens) (UniProt Q08499); assay: Inhibition of human recombinant PDE4D using [3H]-cAMP as substrate at 1 uM after 30 mins by two-step radiometric assay
Sequence of 3',5'-cyclic-AMP phosphodiesterase 4D (Homo sapiens) (Q08499 whole entry): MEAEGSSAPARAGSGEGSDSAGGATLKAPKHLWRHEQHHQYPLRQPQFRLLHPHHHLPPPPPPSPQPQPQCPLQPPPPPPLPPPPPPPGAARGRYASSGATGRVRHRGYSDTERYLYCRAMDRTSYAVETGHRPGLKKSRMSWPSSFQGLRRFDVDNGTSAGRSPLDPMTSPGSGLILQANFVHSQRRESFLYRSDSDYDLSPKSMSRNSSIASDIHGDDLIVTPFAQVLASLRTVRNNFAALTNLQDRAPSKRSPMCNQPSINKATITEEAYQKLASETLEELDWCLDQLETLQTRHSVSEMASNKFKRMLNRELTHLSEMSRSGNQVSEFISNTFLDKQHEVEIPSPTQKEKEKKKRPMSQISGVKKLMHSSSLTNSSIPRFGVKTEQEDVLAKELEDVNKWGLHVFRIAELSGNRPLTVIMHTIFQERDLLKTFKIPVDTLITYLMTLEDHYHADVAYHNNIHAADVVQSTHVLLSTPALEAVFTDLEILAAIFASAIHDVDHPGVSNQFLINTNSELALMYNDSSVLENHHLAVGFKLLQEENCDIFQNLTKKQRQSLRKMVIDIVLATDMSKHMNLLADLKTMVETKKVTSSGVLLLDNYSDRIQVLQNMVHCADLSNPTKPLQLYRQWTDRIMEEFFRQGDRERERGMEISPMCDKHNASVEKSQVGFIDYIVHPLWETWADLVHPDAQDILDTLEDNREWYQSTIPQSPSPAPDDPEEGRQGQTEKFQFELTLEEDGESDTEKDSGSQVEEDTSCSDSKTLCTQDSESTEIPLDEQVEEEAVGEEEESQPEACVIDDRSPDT

[9] = Metabolic stability in Wistar rat liver microsomes incubated for 10 mins prior to NADPH addition measured after 60 mins by LC/MS/MS analysis; format: ADME; conditions: read-out: Stability
[10] = Metabolic stability in CD1 mouse liver microsomes incubated for 10 mins prior to NADPH addition measured after 60 mins by LC/MS/MS analysis; format: ADME; conditions: read-out: Stability
[11] = system: Rattus norvegicus; assay: Antipsychotic activity in po dosed Sprague-Dawley rat psychosis model assessed as reversal of MK-801-induced locomotion administered 2 hrs prior to MK-801 challenge measured every 5 mins for 1 hr starting 15 mins post MK-801 injection relative to vehicle-treated control; format: functional
[12] = system: Rattus norvegicus; assay: Antipsychotic activity in Sprague-Dawley rat conditioned avoidance response model assessed as escape at 10 mg/kg, po measured after 2 hrs relative to vehicle-treated control; format: functional, organism-based; set-up: dose 10 mg/kg
[13] = system: Rattus norvegicus; assay: Antipsychotic activity in Sprague-Dawley rat prepulse inhibition deficit model assessed as reversal of MK-801-induced effect at 10 mg/kg, po administered 110 mins prior to MK-801 challenge relative to vehicle-treated control; format: functional; set-up: scale not given: the % may be the effect or the level left
[14] = target: Dual 3',5'-cyclic-AMP and -GMP phosphodiesterase 11A (Homo sapiens) (UniProt Q9HCR9); assay: Inhibition of human recombinant PDE11A using [3H]-cAMP as substrate at 10 uM after 30 mins by two-step radiometric assay
Sequence of Dual 3',5'-cyclic-AMP and -GMP phosphodiesterase 11A (Homo sapiens) (Q9HCR9 whole entry, looked up): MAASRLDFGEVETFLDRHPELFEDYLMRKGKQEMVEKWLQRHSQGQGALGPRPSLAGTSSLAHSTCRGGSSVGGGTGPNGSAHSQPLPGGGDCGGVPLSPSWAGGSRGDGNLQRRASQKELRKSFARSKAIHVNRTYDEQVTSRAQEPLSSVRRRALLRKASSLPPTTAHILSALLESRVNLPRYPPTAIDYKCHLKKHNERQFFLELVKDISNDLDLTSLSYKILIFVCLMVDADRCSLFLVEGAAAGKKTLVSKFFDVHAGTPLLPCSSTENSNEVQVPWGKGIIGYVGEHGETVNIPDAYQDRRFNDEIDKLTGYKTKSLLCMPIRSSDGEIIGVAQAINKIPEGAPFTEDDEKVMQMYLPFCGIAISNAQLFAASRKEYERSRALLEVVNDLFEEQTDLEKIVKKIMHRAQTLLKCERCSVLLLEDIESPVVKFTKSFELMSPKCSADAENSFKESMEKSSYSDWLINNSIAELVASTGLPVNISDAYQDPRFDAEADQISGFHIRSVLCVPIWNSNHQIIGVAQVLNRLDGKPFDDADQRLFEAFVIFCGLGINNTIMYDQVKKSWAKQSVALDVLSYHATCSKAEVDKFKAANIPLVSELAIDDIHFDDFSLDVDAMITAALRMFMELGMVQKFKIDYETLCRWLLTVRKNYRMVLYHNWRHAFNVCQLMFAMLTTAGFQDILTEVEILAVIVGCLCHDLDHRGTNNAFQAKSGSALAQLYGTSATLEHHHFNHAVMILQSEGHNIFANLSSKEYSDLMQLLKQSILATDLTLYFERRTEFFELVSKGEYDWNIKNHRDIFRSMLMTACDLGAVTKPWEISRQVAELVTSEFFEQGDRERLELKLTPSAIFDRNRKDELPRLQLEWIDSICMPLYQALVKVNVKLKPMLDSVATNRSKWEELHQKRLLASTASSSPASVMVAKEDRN

[15] = target: cGMP-dependent 3',5'-cyclic phosphodiesterase (Homo sapiens) (UniProt O00408); assay: Inhibition of human recombinant PDE2A using cAMP as substrate at 1 uM after 30 mins by HTRF method
Sequence of cGMP-dependent 3',5'-cyclic phosphodiesterase (Homo sapiens) (O00408 whole entry): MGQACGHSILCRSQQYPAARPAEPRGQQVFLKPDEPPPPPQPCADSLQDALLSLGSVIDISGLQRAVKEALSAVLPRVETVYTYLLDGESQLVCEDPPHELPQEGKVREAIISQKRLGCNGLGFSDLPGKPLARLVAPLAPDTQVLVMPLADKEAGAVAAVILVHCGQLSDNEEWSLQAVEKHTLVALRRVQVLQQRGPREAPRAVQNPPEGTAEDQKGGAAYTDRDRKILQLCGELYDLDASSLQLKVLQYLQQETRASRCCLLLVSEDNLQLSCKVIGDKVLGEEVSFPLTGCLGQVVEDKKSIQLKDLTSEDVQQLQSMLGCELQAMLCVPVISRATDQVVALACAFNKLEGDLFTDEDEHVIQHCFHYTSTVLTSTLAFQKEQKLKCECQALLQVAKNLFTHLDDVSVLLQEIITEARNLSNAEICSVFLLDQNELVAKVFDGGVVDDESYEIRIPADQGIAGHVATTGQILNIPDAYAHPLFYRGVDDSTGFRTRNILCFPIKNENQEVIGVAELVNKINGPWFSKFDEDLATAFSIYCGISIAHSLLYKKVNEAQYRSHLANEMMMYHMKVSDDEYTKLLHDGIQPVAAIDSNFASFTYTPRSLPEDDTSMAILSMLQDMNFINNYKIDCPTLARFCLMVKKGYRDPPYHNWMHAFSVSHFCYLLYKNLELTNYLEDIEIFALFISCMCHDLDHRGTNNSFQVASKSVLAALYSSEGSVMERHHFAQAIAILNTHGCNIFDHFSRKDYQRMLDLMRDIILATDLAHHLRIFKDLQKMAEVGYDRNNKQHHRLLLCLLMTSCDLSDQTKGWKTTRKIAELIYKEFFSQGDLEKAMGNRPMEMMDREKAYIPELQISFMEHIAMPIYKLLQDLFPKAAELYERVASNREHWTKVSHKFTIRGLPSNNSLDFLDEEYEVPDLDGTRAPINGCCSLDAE

[16] = system: Rattus norvegicus; assay: Antipsychotic activity in Sprague-Dawley rat conditioned avoidance response model assessed as response failure at 10 mg/kg, po measured after 2 hrs relative to vehicle-treated control; format: functional, organism-based; set-up: dose 10 mg/kg
[17] = Half life in Swiss albino mouse at 10 mg/kg, po; format: ADME, organism-based; set-up: dose 10 mg/kg, route oral; conditions: in vivo
[18] = target: High affinity 3',5'-cyclic-AMP phosphodiesterase 7A (Homo sapiens) (UniProt Q13946); assay: Inhibition of human recombinant PDE7A using [3H]-cAMP as substrate at 10 uM after 30 mins by two-step radiometric assay
Sequence of High affinity 3',5'-cyclic-AMP phosphodiesterase 7A (Homo sapiens) (Q13946 whole entry): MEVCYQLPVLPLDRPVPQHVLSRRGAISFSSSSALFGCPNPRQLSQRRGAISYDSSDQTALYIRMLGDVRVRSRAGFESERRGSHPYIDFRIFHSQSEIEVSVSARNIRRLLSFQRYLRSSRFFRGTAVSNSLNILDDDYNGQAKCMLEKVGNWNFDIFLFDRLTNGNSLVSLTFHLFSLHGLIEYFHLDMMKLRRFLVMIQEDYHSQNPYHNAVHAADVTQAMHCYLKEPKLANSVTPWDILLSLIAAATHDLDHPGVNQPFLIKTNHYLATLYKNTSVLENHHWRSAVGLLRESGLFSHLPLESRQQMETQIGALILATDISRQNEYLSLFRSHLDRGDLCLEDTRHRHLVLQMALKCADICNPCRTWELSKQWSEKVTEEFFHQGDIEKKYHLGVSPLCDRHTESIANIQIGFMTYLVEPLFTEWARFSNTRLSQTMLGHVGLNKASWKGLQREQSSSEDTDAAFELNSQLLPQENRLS

[19] = Plasma clearance in iv dosed Sprague-Dawley rat; format: ADME, organism-based
[20] = target: cGMP-inhibited 3',5'-cyclic phosphodiesterase 3A (Homo sapiens) (UniProt Q14432); assay: Inhibition of human recombinant PDE3A using cAMP as substrate at 10 uM after 30 mins by HTRF method
Sequence of cGMP-inhibited 3',5'-cyclic phosphodiesterase 3A (Homo sapiens) (Q14432 whole entry): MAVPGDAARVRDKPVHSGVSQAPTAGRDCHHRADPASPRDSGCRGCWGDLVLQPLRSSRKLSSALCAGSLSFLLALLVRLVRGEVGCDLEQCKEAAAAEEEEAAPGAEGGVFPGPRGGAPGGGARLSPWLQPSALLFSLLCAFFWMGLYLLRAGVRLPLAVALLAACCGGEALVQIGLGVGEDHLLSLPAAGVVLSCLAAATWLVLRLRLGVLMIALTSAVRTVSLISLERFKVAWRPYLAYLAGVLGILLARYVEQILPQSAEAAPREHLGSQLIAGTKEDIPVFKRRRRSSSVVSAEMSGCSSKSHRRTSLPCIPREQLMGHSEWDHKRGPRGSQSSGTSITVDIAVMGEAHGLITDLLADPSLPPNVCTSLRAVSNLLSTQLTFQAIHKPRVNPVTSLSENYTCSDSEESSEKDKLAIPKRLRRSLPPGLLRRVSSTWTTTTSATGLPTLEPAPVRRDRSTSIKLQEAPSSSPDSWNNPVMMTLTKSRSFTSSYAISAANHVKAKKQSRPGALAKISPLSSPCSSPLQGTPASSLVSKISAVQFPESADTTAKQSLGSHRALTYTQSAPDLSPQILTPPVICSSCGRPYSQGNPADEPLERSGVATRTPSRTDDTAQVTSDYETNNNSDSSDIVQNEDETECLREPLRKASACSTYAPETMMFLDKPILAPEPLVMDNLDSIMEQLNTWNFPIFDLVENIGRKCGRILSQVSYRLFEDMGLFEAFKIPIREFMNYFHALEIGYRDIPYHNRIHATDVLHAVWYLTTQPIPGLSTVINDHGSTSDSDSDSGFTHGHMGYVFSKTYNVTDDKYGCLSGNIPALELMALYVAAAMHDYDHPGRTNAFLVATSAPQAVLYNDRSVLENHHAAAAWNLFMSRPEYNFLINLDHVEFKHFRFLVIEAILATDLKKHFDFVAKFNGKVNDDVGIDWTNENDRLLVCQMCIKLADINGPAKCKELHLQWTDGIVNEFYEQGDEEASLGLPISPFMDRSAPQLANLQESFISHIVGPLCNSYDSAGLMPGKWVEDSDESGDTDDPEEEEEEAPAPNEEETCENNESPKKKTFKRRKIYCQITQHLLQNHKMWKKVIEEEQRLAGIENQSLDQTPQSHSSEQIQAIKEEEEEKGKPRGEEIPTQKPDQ

[21] = Metabolic stability in human liver microsomes incubated for 10 mins prior to NADPH addition measured after 60 mins by LC/MS/MS analysis; format: ADME; conditions: read-out: Stability
[22] = AUC (0 to t) in Swiss albino mouse at 10 mg/kg, po; format: ADME, organism-based; set-up: dose 10 mg/kg, route oral; conditions: plasma
[23] = system: Rattus norvegicus; assay: Antipsychotic activity in Sprague-Dawley rat psychosis model assessed as reversal of MK-801-induced ataxia at 3 mg/kg, po administered 2 hrs prior to MK-801 challenge measured every 5 mins for 1 hr starting 15 mins post MK-801 injection relative to vehicle-treated control; format: functional
[24] = system: Rattus norvegicus; assay: Antipsychotic activity in Sprague-Dawley rat prepulse inhibition deficit model assessed as reversal of MK-801-induced effect at 1 mg/kg, po administered 110 mins prior to MK-801 challenge relative to vehicle-treated control; format: functional; set-up: scale not given: the % may be the effect or the level left
[25] = system: Rattus norvegicus; assay: Antipsychotic activity in Sprague-Dawley rat psychosis model assessed as reversal of MK-801-induced ataxia at 1 mg/kg, po administered 2 hrs prior to MK-801 challenge measured every 5 mins for 1 hr starting 15 mins post MK-801 injection relative to vehicle-treated control; format: functional
[26] = target: cGMP-specific 3',5'-cyclic phosphodiesterase (Homo sapiens) (UniProt O76074); assay: Inhibition of human recombinant PDE5A using […] as substrate at 1 uM after 30 mins by scintillation proximity assay

Papp [1]: 2.97 ×10⁻⁶ cm/s
IC50 [2]: 11.7 nM
Drug uptake(free) [4]: 5 nM
inhibition [7]: 21.6%
inhibition [8]: 0%
remaining at 1 h [9]: 51%
remaining at 1 h [10]: 46.2%
inhibition [14]: 11.2%
inhibition [15]: 3.3%
half-life [17]: 10.4 h
inhibition [18]: 44.5%
clearance [19]: 1.6 mL/min/kg
inhibition [20]: 6.3%
remaining at 1 h [21]: 77.4%
AUC(0-t) [22]: 31600 ng·h/mL
inhibition [26]: 0.8%
SMILES: Cn1cc(-c2ccc(Oc3nccnc3-c3ccncc3)cc2)c2ncccc21
Activity [3]: Dose-dependent effect
ED50 [3]: 1.47 mg/kg
Ratio ED50 [5]: 10.63
Activity [6]: 90%
ED50 [11]: 1.63 mg/kg
Activity [12]: Active
Activity [13]: 88%
Activity [16]: Active
Activity [23]: 59%
Activity [24]: 43%
Activity [25]: 59%

Reference: ChEMBL document CHEMBL3352660, “Design, synthesis and pharmacological evaluation of novel polycyclic heteroarene ethers as PDE10A inhibitors: part II” (Bioorg Med Chem Lett, 2014)
